Columns and labels:
Details in all cases: 48 h
P12-Ichikawa [1] = assay: cell viability relative to DMSO control; higher = less cytotoxic
Procedure, shortened: (§1)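 NOMO1 or SEM (500 cells/well) or P12-Ichikawa (1000 cells/well) leukemia cells were adapted for at least four passages in each medium. They were seeded in 1536-well plates (5 μl) and pin-dosed with library compounds in DMSO over an 11-point threefold series, 47 μM to 0.79 nM. CellTiter-Glo One luminescence was read after 48 h at 37°C. Viability is the per-plate percentage relative to DMSO wells, with cell-free wells as background.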

SEM cells [2] = assay: as above
Procedure, shortened: as §1

NOMO1 [3] = assay: as above
Procedure, shortened: as §1

P12-Ichikawa [4] = assay: AUC of viability dose-response curve (% viability x log10 dose units); higher = less sensitive
Procedure, shortened: (§2)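 In 1536-well plates, leukemia cells adapted to each medium (500 or 1000 cells/well) were exposed for 48 h at 37°C to library compounds in DMSO across 11 threefold doses, 47 μM down to 0.79 nM. Viability was read by CellTiter-Glo One luminescence and normalised per plate to DMSO and cell-free wells. A four-parameter log-logistic fit over log10 doses was integrated by trapezoidal rule. This yielded the area under the curve, with over-full-viability curves scaled and quality-control failures dropped.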

SEM cells [5] = assay: as above
Procedure, shortened: as §2

NOMO1 [6] = assay: as above
Procedure, shortened: as §2

CCOC(=O)c1cncn1[C@H](C)c1ccccc1
cell viability [%]
Details	NOMO1 [3]	P12-Ichikawa [1]	SEM cells [2]
HPLM + 10% dialyzed FBS, 0.000781 µM	–	122	101
HPLM + 10% dialyzed FBS, 0.00234 µM	–	123	92.8
HPLM + 10% dialyzed FBS, 0.00702 µM	–	115	92.6
HPLM + 10% dialyzed FBS, 0.0211 µM	–	127	89.6
HPLM + 10% dialyzed FBS, 0.0632 µM	–	128	108
HPLM + 10% dialyzed FBS, 0.19 µM	–	121	96.9
HPLM + 10% dialyzed FBS, 0.569 µM	–	125	23.1
HPLM + 10% dialyzed FBS, 1.71 µM	–	121	106
HPLM + 10% dialyzed FBS, 5.12 µM	–	112	113
HPLM + 10% dialyzed FBS, 15.4 µM	–	109	96.2
HPLM + 10% dialyzed FBS, 46.1 µM	–	106	89.8
RPMI 5 mM glucose + 10% FBS, 0.000781 µM	118	125	111
RPMI 5 mM glucose + 10% FBS, 0.00234 µM	116	129	110
RPMI 5 mM glucose + 10% FBS, 0.00702 µM	135	122	97.4
RPMI 5 mM glucose + 10% FBS, 0.0211 µM	128	136	109
RPMI 5 mM glucose + 10% FBS, 0.0632 µM	112	122	112
RPMI 5 mM glucose + 10% FBS, 0.19 µM	115	116	114
RPMI 5 mM glucose + 10% FBS, 0.569 µM	121	121	21.6
RPMI 5 mM glucose + 10% FBS, 1.71 µM	127	113	107
RPMI 5 mM glucose + 10% FBS, 5.12 µM	117	115	117
RPMI 5 mM glucose + 10% FBS, 15.4 µM	119	114	108
RPMI 5 mM glucose + 10% FBS, 46.1 µM	125	120	111
RPMI 5 mM glucose + 10% dialyzed FBS, 0.000781 µM	–	121	118
RPMI 5 mM glucose + 10% dialyzed FBS, 0.00234 µM	–	126	116
RPMI 5 mM glucose + 10% dialyzed FBS, 0.00702 µM	–	119	93.8
RPMI 5 mM glucose + 10% dialyzed FBS, 0.0211 µM	–	124	109
RPMI 5 mM glucose + 10% dialyzed FBS, 0.0632 µM	–	128	128
RPMI 5 mM glucose + 10% dialyzed FBS, 0.19 µM	–	122	102
RPMI 5 mM glucose + 10% dialyzed FBS, 0.569 µM	–	126	26.4
RPMI 5 mM glucose + 10% dialyzed FBS, 1.71 µM	–	121	115
RPMI 5 mM glucose + 10% dialyzed FBS, 5.12 µM	–	115	98.9
RPMI 5 mM glucose + 10% dialyzed FBS, 15.4 µM	–	113	106
RPMI 5 mM glucose + 10% dialyzed FBS, 46.1 µM	–	111	97.7

AUC of viability dose-response curve
Details	NOMO1 [6]	P12-Ichikawa [4]	SEM cells [5]
HPLM + 10% dialyzed FBS	443	463	438
RPMI 5 mM glucose + 10% FBS	477	452	468
RPMI 5 mM glucose + 10% dialyzed FBS	442	466	435

C/C(O)=C(\C#N)C(=O)Nc1cc(Br)ccc1Br
cell viability [%]
Details	NOMO1 [3]	P12-Ichikawa [1]	SEM cells [2]
HPLM + 10% dialyzed FBS, 0.000781 µM	111	105	108
HPLM + 10% dialyzed FBS, 0.00234 µM	119	110	102
HPLM + 10% dialyzed FBS, 0.00702 µM	98.3	114	112
HPLM + 10% dialyzed FBS, 0.0211 µM	115	109	107
HPLM + 10% dialyzed FBS, 0.0632 µM	88.3	109	112
HPLM + 10% dialyzed FBS, 0.19 µM	104	109	110
HPLM + 10% dialyzed FBS, 0.569 µM	98.3	108	107
HPLM + 10% dialyzed FBS, 1.71 µM	96.6	105	109
HPLM + 10% dialyzed FBS, 5.12 µM	98.8	99.6	108
HPLM + 10% dialyzed FBS, 15.4 µM	90.7	97.9	32.2
HPLM + 10% dialyzed FBS, 46.1 µM	78.3	95	75.4
RPMI 5 mM glucose + 10% FBS, 0.000781 µM	96.4	100	122
RPMI 5 mM glucose + 10% FBS, 0.00234 µM	93.7	109	104
RPMI 5 mM glucose + 10% FBS, 0.00702 µM	94.6	104	104
RPMI 5 mM glucose + 10% FBS, 0.0211 µM	99.2	108	106
RPMI 5 mM glucose + 10% FBS, 0.0632 µM	94	105	119
RPMI 5 mM glucose + 10% FBS, 0.19 µM	92.5	107	112
RPMI 5 mM glucose + 10% FBS, 0.569 µM	96.2	100	99
RPMI 5 mM glucose + 10% FBS, 1.71 µM	90	101	113
RPMI 5 mM glucose + 10% FBS, 5.12 µM	83	104	106
RPMI 5 mM glucose + 10% FBS, 15.4 µM	88	96.4	32.8
RPMI 5 mM glucose + 10% FBS, 46.1 µM	82.3	86.5	84.9
RPMI 5 mM glucose + 10% dialyzed FBS, 0.000781 µM	95.3	106	112
RPMI 5 mM glucose + 10% dialyzed FBS, 0.00234 µM	96	113	110
RPMI 5 mM glucose + 10% dialyzed FBS, 0.00702 µM	102	114	108
RPMI 5 mM glucose + 10% dialyzed FBS, 0.0211 µM	102	109	118
RPMI 5 mM glucose + 10% dialyzed FBS, 0.0632 µM	94.1	106	107
RPMI 5 mM glucose + 10% dialyzed FBS, 0.19 µM	102	104	108
RPMI 5 mM glucose + 10% dialyzed FBS, 0.569 µM	90	103	105
RPMI 5 mM glucose + 10% dialyzed FBS, 1.71 µM	83.4	116	111
RPMI 5 mM glucose + 10% dialyzed FBS, 5.12 µM	82.5	96.3	99
RPMI 5 mM glucose + 10% dialyzed FBS, 15.4 µM	93.3	94.5	32
RPMI 5 mM glucose + 10% dialyzed FBS, 46.1 µM	78	94.5	70.5

AUC of viability dose-response curve
Details	NOMO1 [6]	P12-Ichikawa [4]	SEM cells [5]
HPLM + 10% dialyzed FBS	420	462	441
RPMI 5 mM glucose + 10% FBS	439	469	442
RPMI 5 mM glucose + 10% dialyzed FBS	442	449	434

From the supplement of paper PMC11451515
